From paper PMC9977638 (Medicinal Chemistry Research, 2023)

Molecular target: T1, human recombinant COX-2 (Homo sapiens, UniProt P35354)
T1 sequence (P35354 18-604): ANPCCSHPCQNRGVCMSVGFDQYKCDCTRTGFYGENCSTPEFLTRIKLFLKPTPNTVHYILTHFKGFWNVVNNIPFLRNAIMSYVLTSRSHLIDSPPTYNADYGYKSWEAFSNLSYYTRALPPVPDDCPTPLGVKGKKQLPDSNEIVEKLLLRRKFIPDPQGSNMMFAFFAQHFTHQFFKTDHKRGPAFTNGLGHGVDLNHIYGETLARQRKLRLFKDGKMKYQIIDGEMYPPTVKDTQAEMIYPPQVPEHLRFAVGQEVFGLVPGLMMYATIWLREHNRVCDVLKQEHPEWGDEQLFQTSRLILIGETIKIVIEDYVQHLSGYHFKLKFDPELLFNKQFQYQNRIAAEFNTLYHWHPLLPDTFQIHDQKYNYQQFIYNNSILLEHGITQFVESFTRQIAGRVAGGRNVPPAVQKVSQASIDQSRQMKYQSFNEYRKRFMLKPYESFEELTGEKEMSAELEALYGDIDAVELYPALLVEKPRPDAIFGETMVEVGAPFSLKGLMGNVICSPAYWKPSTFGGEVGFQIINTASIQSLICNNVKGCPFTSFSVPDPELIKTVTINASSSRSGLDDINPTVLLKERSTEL
Type: biochemical
Conditions: COX-1 IC50/COX-2 IC50

For `Cc1ccc(Nc2c(-c3ccc(S(C)(=O)=O)cc3)nc3c(C)cccn23)cc1` [Compound 5n, 8-Methyl-2-(4-(methylsulfonyl)phenyl)-N-(p-tolyl)imidazo[1,2-a]pyridin-3-amine], the “Selectivity index (S.I.)” value was 508.
